These results are taken from patent publication US10246437B2, “Crystal form of neratinib maleate and preparation method therefor” (CRYSTAL PHARMATECH CO., LTD, priority 2015, dated 2019).

Data set [1] can be described thus: Stability assessment on storage, XRPD patterns collected after storage. The data set is classed as physicochemical. As to conditions: maleate. The protocol: Form B in the present invention were stored under 5° C., 25° C./60% relative humidity and 40° C./75% RH for 90 days. XRPD patterns were collected after storage.
Form C of the present invention was stored under 5° C., 25° C./60% RH and 40° C./75% relative humidity for 330 days. XRPD patterns were collected after storage.

The nature of data set [2]: Solubility comparison in pH 1.8 SGF and high purity water, saturated solutions determined by HPLC. The data set is classed as physicochemical. The settings on record: for Solubility: maleate; for Solubility in comparison to maleate Form II in CN101918390B: pH 1.8 SGF and high purity water, after 1, 4 and 24 hours; for solubility at 1 h / solubility at 4 h / solubility at 24 h: thermodynamic from solid. The protocol:
Maleate crystalline Form A, Form B of the present invention and maleate Form II in CN101918390B were added in pH 1.8 SGF (simulated gastric fluid), and in high purity water to obtain suspensions. Concentrations in the saturation solutions were determined after 1 hour, 4 hours and 24 hours by HPLC.

The conditions of data set [3]: as disclosed in CN101918390B; cited from earlier work.
Data set [4] is described as follows: Stability comparison: 1:1 mixed suspension of Form C and Form II stirred in solvent, solid tested by XRPD. The data set is classed as physicochemical. As to conditions: nitromethane, 24 hours, Form C versus Form II. As to the method:
10.0 mg of maleate crystalline Form C and maleate crystalline Form II in CN101918390B were mixed at a ratio of 1:1 and added into 1.0 mL of solvent to obtain a suspension. The suspension was magnetically stirred at 500 rpm at 25° C. for 24 hours, and centrifuged to give a solid which was tested by XRPD.

Data set [5] in a line: Hygroscopicity by dynamic vapor sorption (DVS). The settings on record: DVS at 25° C., 80% RH; maleate. The data set is classed as physicochemical. As to the method:
Hygroscopicity of 10 mg of Form C of the present invention was tested using dynamic vapor sorption (DVS) at 25° C. […].
About hygroscopicity characterization description and definition of hygroscopicity (Chinese Pharmacopoeia 2010 edition appendix XIXJ Drug hygroscopic test guidelines, test at 25° C.+/−1° C., 80% Relative Humidity) • deliquescent: sufficient water is absorbed to form a liquid; • very hygroscopic: increase in mass is equal to or greater than 15 percent; • hygroscopic: increase in mass is less than 15 percent and equal to or greater than 2 percent; • slightly hygroscopic: increase in mass is less than 2 percent and equal to or greater than 0.2 percent. • no or almost no hygroscopic: increase in mass is less than 0.2%

≈ marks a conversion by molar mass, not a printed value. Entries after “also recorded” stand apart in the source; their conditions may differ. Structures can show the parent of a compound that is named as a salt.

Turning to `CCOc1cc2ncc(C#N)c(Nc3ccc(OCc4ccccn4)c(Cl)c3)c2cc1NC(=O)/C=C/CN(C)C` [Form B, (2E)-N-[4-[[3-chloro-4-[(pyridin-2-yl)methoxy]phenyl]amino]-3-cyano-7-ethoxyquinolin-6-yl]-4-(dimethylamino)but-2-enamide maleate], the “Form Change” value is “remains unchanged; also recorded: Form B doesn't change” in data set [1] (5° C., 90 days); “remains unchanged; also recorded: Form B doesn't change” in data set [1] (25° C./60% RH, 90 days); “remains unchanged; also recorded: Form B doesn't change” in data set [1] (40° C./75% RH, 90 days). In addition, the Solubility was >5400 µg/mL in data set [2] (H2O (high purity water), 1 h); >5400 µg/mL in data set [2] (H2O (high purity water), 4 h); >5400 µg/mL in data set [2] (H2O (high purity water), 24 h); >6700 µg/mL in data set [2] (pH 1.8 SGF, 1 h); >6700 µg/mL in data set [2] (pH 1.8 SGF, 4 h); >6700 µg/mL in data set [2] (pH 1.8 SGF, 24 h). For the same compound, in data set [2], the “Solubility in comparison to maleate Form II in CN101918390B” value is “higher solubility”.
As for `CCOc1cc2ncc(C#N)c(Nc3ccc(OCc4ccccn4)c(Cl)c3)c2cc1NC(=O)/C=C/CN(C)C` [Form I], the “Form conversion by absorbing moisture in the air” value in data set [3] is reported as “can easily convert to Form II”.
As to `CCOc1cc2ncc(C#N)c(Nc3ccc(OCc4ccccn4)c(Cl)c3)c2cc1NC(=O)/C=C/CN(C)C` [Form II, reference compound], the “Stability comparison (form conversion in mixed suspension)” value in data set [4] is recorded as “transferred to crystalline Form C”. Besides, the solubility at 1 h is 3300 µg/mL (≈ 5.92 mM) in data set [2] (simulated gastric fluid (SGF), simulated gastric fluid, pH 1.8 SGF, 1 h) and 1000 µg/mL (≈ 1.8 mM) in data set [2] (H2O (high purity water), 1 h). The solubility at 4 h in data set [2] (simulated gastric fluid (SGF), simulated gastric fluid, pH 1.8 SGF, 4 h) is 3200 µg/mL (≈ 5.74 mM); in data set [2] (H2O (high purity water), 4 h) it was 940 µg/mL (≈ 1.69 mM). The solubility at 24 h was 3100 µg/mL (≈ 5.56 mM) in data set [2] (simulated gastric fluid (SGF), simulated gastric fluid, pH 1.8 SGF, 24 h) and 940 µg/mL (≈ 1.69 mM) in data set [2] (H2O (high purity water), 24 h).
As to `CCOc1cc2ncc(C#N)c(Nc3ccc(OCc4ccccn4)c(Cl)c3)c2cc1NC(=O)/C=C/CN(C)C` [Form A, (2E)-N-[4-[[3-chloro-4-[(pyridin-2-yl)methoxy]phenyl]amino]-3-cyano-7-ethoxyquinolin-6-yl]-4-(dimethylamino)but-2-enamide maleate], the solubility at 1 h in data set [2] (pH 1.8, simulated gastric fluid, pH 1.8 SGF, 1 h) was > 8400 µg/mL; in data set [2] (water, H2O (high purity water), 1 h) it was > 3900 µg/mL. Besides, the solubility at 4 h in data set [2] (pH 1.8, simulated gastric fluid, pH 1.8 SGF, 4 h) was > 8400 µg/mL; in data set [2] (water, H2O (high purity water), 4 h), > 3900 µg/mL. The solubility at 24 h is > 8400 µg/mL in data set [2] (pH 1.8, simulated gastric fluid, pH 1.8 SGF, 24 h) and > 3900 µg/mL in data set [2] (water, H2O (high purity water), 24 h). The “Solubility in comparison to maleate Form II in CN101918390B” value in data set [2] was “higher solubility”.
For the compound `CCOc1cc2ncc(C#N)c(Nc3ccc(OCc4ccccn4)c(Cl)c3)c2cc1NC(=O)/C=C/CN(C)C` [Form C, (2E)-N-[4-[[3-chloro-4-[(pyridin-2-yl)methoxy]phenyl]amino]-3-cyano-7-ethoxyquinolin-6-yl]-4-(dimethylamino)but-2-enamide maleate], the “Form Change” value in data set [1] (5° C., 330 days) is listed as “remains unchanged; also recorded: Form C doesn't change”; in data set [1] (25° C./60% RH, 330 days), “remains unchanged; also recorded: Form C doesn't change”; in data set [1] (40° C./75% RH, 330 days) it was “remains unchanged; also recorded: Form C doesn't change”. The “weight increment under 80% Relative Humidity” value in data set [5] is listed as 1.01%. In addition, in data set [4] (maleate), the “Stability comparison (form conversion in mixed suspension)” value was “more stable than maleate crystalline Form II”.

By Solubility is commonly meant the dissolved amount per volume that the medium holds. Read a high Solubility as a readily soluble substance. As usually defined, the solubility is the dissolved amount per volume that the medium holds. Read a low solubility as little dissolved substance.
